Source: US10617664B2, “Brain derived PPARα ligands” (Rush University Medical Center, priority 2015, dated 2020)

Columns and labels:
[1] = biological target: T1, PPARα LBD (Homo sapiens, UniProt Q07869); test: TR-FRET PPAR-alpha coactivator assay (Lanthascreen); format: biochemical; settings: curve fit FIG. 13
T1 construct: GST-tagged recombinant PPARα LBD protein; purchased PV4684
T1 sequence (Q07869 239-466 limits assumed): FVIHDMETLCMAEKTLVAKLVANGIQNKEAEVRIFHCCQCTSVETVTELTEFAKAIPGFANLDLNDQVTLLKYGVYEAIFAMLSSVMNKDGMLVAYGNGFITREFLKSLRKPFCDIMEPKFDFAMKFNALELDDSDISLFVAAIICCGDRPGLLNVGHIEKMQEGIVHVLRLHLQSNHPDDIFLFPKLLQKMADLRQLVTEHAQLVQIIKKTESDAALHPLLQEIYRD
Description: TR-FRET assay was performed using Lanthascreen TR-FRET PPAR-alpha coactivator assay kit (Cat # PV4684). In this assay, different doses of statin drugs were incubated with GST-tagged recombinant PPARα LBD protein, Terbium (Tb)-tagged anti GST antibody and Fluorescein (FL)-tagged PGC1α as directed in the manufacturer's protocol. The entire reaction was set up in corning 384 well plates by an automated robotic injector. Each plate was centrifuged, incubated in a dark place for 30 mins, and then analyzed “molecular devices analyst” machine equipped with dichroic mirror. The excitation wavelength and emission wavelength were set at 340 nm and 540 nm wavelength respectively.

[2] = tested on: NR2A, GluR1 and CREB; test: Immunoblot and immunofluorescence of synaptic molecules in WT hippocampal neurons; format: cell-based, mouse; settings: 5 μM HEX, 5 μM OCT, 50 μM HMB
Description: (FIG. 17A) Immunoblot analyses followed by densitometric analyses of NR2A (FIG. 17B), GluR1 (FIG. 17C) and CREB (FIG. 17D) were performed in Ppara-null and WT hippocampal neurons treated with 5 μM HEX, 5 μM OCT and 50 μM HMB. Data are mean±SD of three different experiments. ^ap<0.05 versus WT-control. Immunocytochemical analyses of NR2A (FIG. 17E) and GluR1 (FIG. 17F) in WT and Ppara-null hippocampal neurons treated with HEX, OCT and HMB. Hippocampal neurons were transduced with lenti-GFP for 48 h followed by treatment with different ligands. Immunoblot analyses followed by relative densitometric analyses of CREB in Ppara-null hippocampal neurons transduced with lentivirions containing different Ppara constructs followed by treatment with HEX (FIG. 17G-H), OCT (FIG. 17I-J) and HMB (FIG. 17K-L). Bands were scanned and presented as relative to control (FIG. 17H, HEX; FIG. 17J, OCT; FIG. 17L, HMB). Data are mean±SD of three different experiments. ^ap<0.05 vs FLPpara control.
Isolation of Mouse Hippocampal Neurons: Hippocampal neurons were isolated from fetuses (E18) of pregnant female Ppara-null and strain-matched WT littermate mice as described by us^6,13,35-36 with some modifications. Briefly, dissection and isolation procedures were performed in an ice-cold, sucrose buffer solution (sucrose 0.32 M, Tris 0.025 M; pH 7.4)^37. The skin and the skull were carefully removed from the brain by scissors followed by peeling off the meninges by a pair of fine tweezers. Next, a fine incision was made in the middle line around the circle of Willis and medial temporal lobe was opened up. Hippocampus was isolated as a thin slice of tissue located near the cortical edge of medial temporal lobe. Hippocampal tissues isolated from all fetal pups (n>10) were combined together and homogenized with 1 ml of trypsin for 5 minutes at 37° C. followed by neutralization of trypsin. The single cell suspension of hippocampal tissue was plated in the poly-D-lysine pre-coated 75 mm flask. Five min after plating, the supernatants were carefully removed and replaced with complete neurobasal media. The next day, 10 μM AraC was added to remove glial contamination in the neuronal culture. The pure cultures of hippocampal neurons were allowed to differentiate fully for 9-10 days before treatment^35,36,38.
For whole-cell and tissue lysates, samples were homogenized in RIPA buffer containing protease and phosphatase inhibitors (Sigma), passed 10 times through a 26-gauge needle, rotated end over end for 30 min at 4° C., and centrifuged for 10 min at 18,000×g. The supernatant was aliquoted and stored at −80° C. until use. Protein concentrations were determined using a NanoDrop 2000 (Thermo Fisher), and 15-30 μg sample was heat-denatured and resolved on 10% or 12% polyacrylamide-SDS gels, transferred to 0.45 μm nitrocellulose membranes under semidry conditions (15V for 12 min). Membranes were blocked for 1 h with blocking buffer (Li-Cor), incubated with primary antibodies overnight at 4° C. under shaking conditions, washed, incubated with IR-dye-labeled secondary antibodies (1:17,000; Li-Cor) for 45 min at room temperature, washed, and visualized with the Odyssey Infrared Imaging System (Li-Cor). Blots were converted to grayscale and then binary, analyzed using Fiji, and normalized to appropriate loading controls.

Structure (SMILES): CCCCCCCCCCCCCCCC(N)=O [HEX, hexadecanamide]
- EC50 [1]: 4.36 µM
- expression of CREB [2]: upregulated
- expression of GluR1 [2]: upregulated
- expression of NR2A [2]: upregulated

Structure (SMILES): CCOC(=O)C(C)(C)C(C)O (stereo not drawn) [HMB]
- EC50 [1]: 31.6 µM
- expression of CREB [2]: upregulated
- expression of GluR1 [2]: upregulated
- expression of NR2A [2]: upregulated

Structure (SMILES): CCCCCCCCC=CCCCCCCCC(N)=O [OCT, 9-octadecenamide]
- EC50 [1]: 4.31 µM
- expression of CREB [2]: upregulated
- expression of GluR1 [2]: upregulated
- expression of NR2A [2]: upregulated
